Read-outs that look alike come from different tables or passages of the source.
Experiments:
[1] = tested on: MTAP silenced L540 HL xenograft; assay: Tumor growth inhibition in L540 HL xenograft model; type: in vivo, Mouse (Mus Musculus); settings: for TGI (%): 21 days of dosing, TGI measured day 21 (end of treatment), NOD/SCID mice
Protocol: (§1) This study was performed to evaluate tumor growth inhibition and pharmacodynamic changes following treatment with the MTA synergistic PRMT5 inhibitor Compound C in the MTAP silenced L540 HL xenograft model. Three doses of Compound C (Dose Level 1, Dose Level 2 and Dose Level 3) were tested. Pharmacodynamic changes were assessed by western blot for a decrease in SDMA (marker of target engagement) following treatment with Compound C.
Xenografts were established by subcutaneous (SC) injection of 5×10^e6 cells suspended in 0.1 mL of PBS into the right front flank of 6-to 8-week-old animals. Tumors were allowed to reach 100-200 mm^3 before randomization. Tumors were measured by calliper and the volumes of tumors were calculated using the following formula: Volume (mm3)=(Tumor Length)×(Tumor width)×(Tumor width)/2 Tumor length (the longest tumor dimension); Tumor width (the longest tumor dimension perpendicular to length).
Animals were randomized into groups based on the size of the tumor. Randomization was performed based on “Matched distribution” method (StudyDirector™ software, version 3.1.399.19). The date of randomization is denoted as Day 0. There were no animal substitutions.
(§2) Control animals were dosed with vehicle (5% v/v DMSO/20% v/v Kolliphor HS15/75% v/v purified water (pH 3.0-3.2)) PO, and vehicle and Compound C treated animals were dosed according to Table 6. Dosing was initiated 1 day upon selection and randomization. On day 21 of dosing, all animals from each received the last dose in the morning. Mice were necropsied 6 h later and flash frozen tumors were collected for PD analysis.
(§3) • Tumors were measured twice weekly by caliper, and the volumes of tumors were calculated using the formula: Volume (mm^3)=(Tumor Length)×(Tumor width)×(Tumor width)/2 • Relative tumor volume (RTV) was calculated using the formula: RTV for day X=(Tumour volume on day X)/(Tumour volume on day 0) • The anti-cancer effect of Compound C was expressed as percent of tumor growth inhibition (TGI) calculated on last day of the study using the formula: • Percentage TGI on day X for treatment group=(((Geomean RTV Vehicle day X)−(Geomean RTV Treatment group day X))/((Geomean RTV Vehicle on day X)−1)×100 • Animals were weighted daily for the dosing phase and twice weekly for all other phases. Percentage of body weight change was calculated using the formula: Percentage body weight change on day X=(((Body weight day X)−(Body weight day of select)×100))
Tumor volumes were plotted as geometric means with SEM. Percentage of body weight change was plotted as means with SEM. Significant p-values for TGI relative to vehicle treated controls (relative tumor volumes) at the last day of treatment, were obtained from a Mann-Whitney one-tailed test, and calculated by GraphPad Prism 8.4.3

[2] = Tolerability / body weight in L540 HL xenograft model; type: in vivo, Mouse (Mus Musculus); settings: all doses tested, PO, 21 days
Protocol: as §2, §3
Tumor volumes were plotted as geometric means with SEM. Percentage of body weight change was plotted as means with SEM. […]

[3] = tested on: SDMA (marker of target engagement); assay: Pharmacodynamic analysis: SDMA western blot in L540 xenograft tumors; type: in vivo, Mouse (Mus Musculus); settings: tumors collected 6 h after last dose on day 21, western blot normalized to vinculin
Protocol: as §1, §2
To determine levels of protein of interest in tumor samples, snap frozen tumor fragments at the end of the PD study were used and protein extracted by adding 600-1000 μl lysis buffer for small and large tumors, respectively. […] Lysates were transferred to a deepwell plate, and protein in the supernatant measured using BCA normalisation method (Thermofisher, #23225). […] The membranes were washed three times for 15 minutes each in 20 ml of TBST, and signal was detected using chemiluminescent SuperSignal West Dura extended duration substrate (Thermofisher, #34075) and quantified using Syngene software. The 30 kDa molecular weight band of PRMT5's substrate, SDMA, was quantified using Syngene software. The 110 kDa molecular weight band of vinculin was also quantified. […]
Primary analysis was carried out using Excel, where raw data was firstly normalised to vinculin, secondly to the geomean of vehicle control and then multiplied by 100. […] Significant p-values, if any, obtained from the ANOVA test, were quantified using GraphPad Prism 8.4.3.

[4] = tested on: HDLM2 cells; assay: Proliferation assay, HDLM2 Hodgkin Lymphoma cells (CellTiter Glo); type: cell-based; settings: Homo sapiens
Protocol: (§4) For the Hodgkin Lymphoma cell lines L428, L540, L1236, HDLM2 and KM-H2 (purchased from DSMZ, http://www.dsmz.de): Assay Ready Plates were prepared by adding compounds to 384-well plates (Corning #3712) using Echo Liquid Handler. On day 0, 1200 cells/well of L428, L540, or KMH2 cells in 60 μl of growth media (RPMI1640+10% FBS+1% L-Glu+1% P/S) were dispensed into the Assay Ready Plates, 10 μM as final top concentration, with 1:3 dilution, and 10 doses total. The same volume was also dispensed into 1 empty plate for Day 0 control plate. 30 μl/well of CellTiter Glo reagent (Promega #7573) was added into Day 0 plate, incubate at room temperature for 20 min in dark, Measure luminescence on plate reader Tecan M200 using 100 ms integration time, Oms attenuation and settle times. The assay plates were incubated for 7 days in incubator with 37° C., 90% humidity, 5% CO2. Luminescence was measured as Day 0 control plate. IC50 was calculated using GraphPad Prism 8 with Nonlinear regression (curve fit) analysis.
Alternatively, for HDLM2 (purchased from DSMZ): Cells were grown as […] cells in growth media (phenol red free RPMI+10% FCS+2 mM glutamine). Cells were seeded into 96-well clear-bottomed black tissue-culture treated plates at 1000 cells/well in 90 μl growth media and placed in an incubator at 37° C., 5% CO2. Compound was obtained in solution from the liquid bank at a concentration of 10 mM in DMSO then half-log serial dilutions performed in DMSO to make ×1000 fold stock solutions. Concentrations were then diluted 1 in 10 in DMSO followed by 1 in 10 in growth media to give an addition plate at x^10 final concentration in 10% DMSO. 10 μl compound was then added to 90 μl cell (1 in 10 dilution) to give a concentration range of 0.1 nM to 10 μM in 1% DMSO. CellTiter Glo readings were taken at the point of dosing and at 6 days. […] Read luminescence on Envision F (ultrasensitive luminescence 96-well protocol with 384 well aperture). IC50 was calculated using GraphPad Prism 8 with Nonlinear regression (curve fit) analysis.

[5] = tested on: wild type (wt) HCT116 cells; assay: Proliferation assay, HCT116 wild type cells (Alamar Blue); type: cell-based; settings: Homo sapiens, HCT-116; HCT116, MTAP status wt, MTAP mRNA level high; average values from two or more experiments
Protocol: (§5) For the HCT116 isogenic cell line (the parental model purchased from ATCC, the MTAP KO clone generated in-house using CRISPR technology): Cells were harvested to a density of 400 cells per well (McCoys 5A+10% FCS+1% Glutamax), 40 μl/well seeded into 384-well plates (Greiner, Kremsmunster, Austria; 781090) using a Multidrop Combi. For Day 0 plates immediately add 4 μl Alamar Blue reagent (Thermo; DAL1100) using a multidrop combi and incubate for 3 h at 37° C., 5% CO2. Day 0 cell plates were measured using Envision plate reader with fluorescence excitation wavelength of 540-570 nm (peak excitation is 570 nm), fluorescence emission at 580-610 nm (peak emission is 585 nm). Test compounds were added using an Echo 555 and placed in incubator at 37° C., 5% CO2 and incubated for 4 more days. […], add 4 μl Alamar Blue reagent using a Multidrop Combi and incubate for 3 h at 37° C., 5% CO2. Day 4 cell plates were measured using EnVision plate reader with fluorescence excitation wavelength of 540-570 nm, fluorescence emission at 580-610 nm. The rate of proliferation (IC50 values) was determined using Genedata screener software by assessing the total cell number from the Envision plate reader for Day 0 and Day 4 plates.

[6] = tested on: MTAP knock out (KO) HCT116 cells; assay: Proliferation assay, HCT116 MTAP knock out cells (Alamar Blue); type: cell-based; settings: Homo sapiens, HCT-116; HCT116, MTAP status KO, MTAP mRNA level low; average values from two or more experiments
Protocol: as §5

[7] = tested on: L1236 cells; assay: Proliferation assay, L1236 Hodgkin Lymphoma cells (CellTiter Glo); type: cell-based
Protocol: as §4

[8] = tested on: L428 cells; assay: Proliferation assay, L428 Hodgkin Lymphoma cells (CellTiter Glo); type: cell-based; settings: Homo sapiens
Protocol: as §4

[9] = tested on: L540 cells; assay: Proliferation assay, L540 Hodgkin Lymphoma cells (CellTiter Glo); type: cell-based; settings: Homo sapiens
Protocol: as §4

[10] = HDLM-2, HDLM2, MTAP status wt, MTAP mRNA level low, average values from two or more experiments, read-out: IC50, proliferation
[11] = L-1236, L1236, MTAP status wt, MTAP mRNA level low, average values from two or more experiments, read-out: IC50, proliferation
[12] = L-428, L428, MTAP status wt, MTAP mRNA level high, average values from two or more experiments, read-out: IC50, proliferation
[13] = L-540, L540, MTAP status wt, MTAP mRNA level low, average values from two or more experiments, read-out: IC50, proliferation

SMILES	TGI (%) ([1]; Dose Level 1, PO)	TGI (%) ([1]; Dose Level 2, PO)	TGI (%) ([1]; Dose Level 3, PO)	Inhibition of tumour growth in vivo (in words) ([1]; Dose Levels 1-3, PO, L540 HL xenograft)	Body weight loss during the treatment period compared to vehicle-treated group [2]	Tolerability [2]	Percentage Inhibition of SDMA ([3]; Dose Level 1, PO) [%]	Percentage Inhibition of SDMA ([3]; Dose Level 2, PO) [%]	Percentage Inhibition of SDMA ([3]; Dose Level 3, PO) [%]	IC50 ([4]; HDLM-2, read-out: IC50, proliferation) [nM]	IC50 [5] [nM]	IC50 [6] [nM]	IC50 ([7]; L-1236, read-out: IC50, proliferation) [nM]	IC50 ([8]; L-428, read-out: IC50, proliferation) [nM]	IC50 ([9]; L-540, read-out: IC50, proliferation) [nM]	IC50 [4, 10] [nM]	IC50 [7, 11] [nM]	IC50 [8, 12] [nM]	IC50 [9, 13] [nM]
CC#CCN1CC[C@@]2(C1=O)c1ccc(F)cc1C(=O)N2Cc1cc2nc(N)c(F)cc2[nH]1 [Compound C, (S)-2-((5-Amino-6-fluoro-1H-pyrrolo[3,2-b]pyridin-2-yl)methyl)-1′-(but-2-yn-1-yl)-5-fluorospiro[isoindoline-1,3′-pyrrolidine]-2′,3-dione]	22	52	93	dose-dependent efficacy	no significant body weight loss	well tolerated	83.9	97.6	99.1	827	8540	170	77	4640	252	–	–	–	–
CC(=O)N1CCC(Nc2cc(C(=O)NC[C@H](O)CN3CCc4ccccc4C3)ncn2)CC1 [Compound B, reference compound]	–	–	–	–	–	–	–	–	–	–	75	74	–	–	–	93	14	583	157
Nc1nc2cc(CN3C(=O)c4cc(F)ccc4[C@]34CCN(Cc3ccc(F)cc3)C4=O)[nH]c2cc1F [Compound A, (S)-2-((5-Amino-6-fluoro-1H-pyrrolo[3,2-b]pyridin-2-yl)methyl)-5-fluoro-1′-(4-fluorobenzyl)spiro[isoindoline-1,3′-pyrrolidine]-2′,3-dione]	–	–	–	–	–	–	–	–	–	–	> 20000	158	–	–	–	39	67	2520	247

From patent US20260048040A1, “MTA-COOPERATIVE PRMT5 INHIBITORS FOR USE IN THE TREATMENT OF CANCER” (ASTRAZENECA AB, priority 2022, published 2026)
